Source: patent US20200407717A1, “METHODS OF MODULATING ANTISENSE ACTIVITY” (Ionis Pharmaceuticals, Inc., priority 2018, published 2020)

What was measured:
Assay type in all cases: cell-based
A431 cells [1] = experiment: Uptake of Cy3-labeled ASO by flow cytometry, A431 cells
Description: (§1) Uptake of compound no. 446654 by A431 cells was measured by flow cytometry. A431 cells were treated with a growth factor for 4 hours prior to incubation with compound no. 446654 for 2 hours. Results are presented in the tables below as relative fluorescence units (RFU) and represent an average of three independent experiments.
Uptake of compound no. 446654 was measured in siRNA treated A431 cells via flow cytometry, as described in example 8. The results are presented in the tables below and indicate that uptake of compound no. 446654 was unaffected by EGFR expression level.

A431 cells [2] = experiment: Localization in early and late endosomes after siRNA treatment; conditions: 20 cells; for % ASO EE/Total ASO: early endosomes (EEA1); for % ASO LE/Total ASO: late endosomes (LAMP1)
Description: EGFR levels in A431 cells were reduced using two siRNAs targeting EGFR, Assay ID 42833 and Assay ID 644 (ThermoFisher). A siRNA targeting luciferase was used for a control. Treatment of cells with the EGFR siRNA reduced EGFR protein levels more than 80%. Following siRNA treatment, cells were treated with additional compounds to test for antisense compound localization, activity, or uptake, as described below.
Following siRNA treatment, cells were treated with compound no. 446654 for two hours. EEA1 was labeled as in Example 2 and LAMP1 was labeled with an antibody. EEA1 is a marker for early endosomes and LAMP1 is a marker for late endosomes. Co-localization of compound no. 446654 with EEA1 and with LAMP1 was observed. The number of 446654 loci co-localized with EEA1 or LAMP1 was counted in 20 cells, and compared to the total number of 446654 loci. The difference observed with control siRNA treatment vs EGFR siRNA treatment shown in Table 22 is significant, as determined by the student T-test (p<0.05), whereas the difference shown in Table 23 was not determined to be significant by the student T-test.

HEK cells = experiment: Uptake by flow cytometry, HEK cells
Description: as §1
Uptake of compound no. 446654 was measured via flow cytometry, as in Example 8, in HEK cells overexpressing EGFR and wild type HEK cells.

Substance: Cy3-^mCesTesGes^mCesTesAdsGds^mCdsTds^mCdsTdsGdsGdsAdsTesTesTesGesAe (antisense CTGCTAGCCTCTGGATTTGA; listed as DNA, chemistry not fully specified) [compound 446654, Cy3-labeled PS-ASO]
- RFU (A431 cells [1]; 0.015 μM, Control Luciferase siRNA): 22.3 RFU
- RFU (A431 cells [1]; 0.015 μM, EGFR siRNA-1): 25.3 RFU
- RFU (A431 cells [1]; 0.015 μM, EGFR siRNA-2): 24.7 RFU
- RFU (A431 cells [1]; 0.03 μM, Control Luciferase siRNA): 31.3 RFU
- RFU (A431 cells [1]; 0.03 μM, EGFR siRNA-1): 33.0 RFU
- RFU (A431 cells [1]; 0.03 μM, EGFR siRNA-2): 29.0 RFU
- RFU (A431 cells [1]; 0.06 μM, Control Luciferase siRNA): 136 RFU
- RFU (A431 cells [1]; 0.06 μM, EGFR siRNA-1): 133 RFU
- RFU (A431 cells [1]; 0.06 μM, EGFR siRNA-2): 101 RFU
- RFU (A431 cells [1]; 0.12 μM, Control): 1475 RFU
- RFU (A431 cells [1]; 0.12 μM, Control Luciferase siRNA): 359 RFU
- RFU (A431 cells [1]; 0.12 μM, EGF): 1772 RFU
- RFU (A431 cells [1]; 0.12 μM, EGFR siRNA-1): 444 RFU
- RFU (A431 cells [1]; 0.12 μM, EGFR siRNA-2): 292 RFU
- RFU (A431 cells [1]; 0.12 μM, FGF): 1420 RFU
- RFU (A431 cells [1]; 0.12 μM, HGF): 1204 RFU
- RFU (A431 cells [1]; 0.12 μM, IGF): 1659 RFU
- RFU (A431 cells [1]; 0.12 μM, PGF): 1321 RFU
- RFU (A431 cells [1]; 0.12 μM, TGF): 1500 RFU
- RFU (A431 cells [1]; 0.12 μM, VEGF): 1147 RFU
- RFU (A431 cells [1]; 0.25 μM, Control): 1606 RFU
- RFU (A431 cells [1]; 0.25 μM, Control Luciferase siRNA): 806 RFU
- RFU (A431 cells [1]; 0.25 μM, EGF): 1917 RFU
- RFU (A431 cells [1]; 0.25 μM, EGFR siRNA-1): 879 RFU
- RFU (A431 cells [1]; 0.25 μM, EGFR siRNA-2): 852 RFU
- RFU (A431 cells [1]; 0.25 μM, FGF): 1682 RFU
- RFU (A431 cells [1]; 0.25 μM, HGF): 1481 RFU
- RFU (A431 cells [1]; 0.25 μM, IGF): 1435 RFU
- RFU (A431 cells [1]; 0.25 μM, PGF): 1275 RFU
- RFU (A431 cells [1]; 0.25 μM, TGF): 1871 RFU
- RFU (A431 cells [1]; 0.25 μM, VEGF): 1423 RFU
- RFU (A431 cells [1]; 0.5 μM, Control): 2223 RFU
- RFU (A431 cells [1]; 0.5 μM, Control Luciferase siRNA): 1392 RFU
- RFU (A431 cells [1]; 0.5 μM, EGF): 2349 RFU
- RFU (A431 cells [1]; 0.5 μM, EGFR siRNA-1): 1437 RFU
- RFU (A431 cells [1]; 0.5 μM, EGFR siRNA-2): 1490 RFU
- RFU (A431 cells [1]; 0.5 μM, FGF): 1827 RFU
- RFU (A431 cells [1]; 0.5 μM, HGF): 2095 RFU
- RFU (A431 cells [1]; 0.5 μM, IGF): 1917 RFU
- RFU (A431 cells [1]; 0.5 μM, PGF): 2112 RFU
- RFU (A431 cells [1]; 0.5 μM, TGF): 2081 RFU
- RFU (A431 cells [1]; 0.5 μM, VEGF): 1973 RFU
- RFU (A431 cells [1]; 1.0 μM, Control): 1565 RFU
- RFU (A431 cells [1]; 1.0 μM, Control Luciferase siRNA): 2374 RFU
- RFU (A431 cells [1]; 1.0 μM, EGF): 2532 RFU
- RFU (A431 cells [1]; 1.0 μM, EGFR siRNA-1): 2614 RFU
- RFU (A431 cells [1]; 1.0 μM, EGFR siRNA-2): 2906 RFU
- RFU (A431 cells [1]; 1.0 μM, FGF): 2414 RFU
- RFU (A431 cells [1]; 1.0 μM, HGF): 2533 RFU
- RFU (A431 cells [1]; 1.0 μM, IGF): 2237 RFU
- RFU (A431 cells [1]; 1.0 μM, PGF): 2487 RFU
- RFU (A431 cells [1]; 1.0 μM, TGF): 2826 RFU
- RFU (A431 cells [1]; 1.0 μM, VEGF): 2655 RFU
- RFU (A431 cells [1]; Time 0.25 hours, Control Luciferase siRNA): 1082 RFU
- RFU (A431 cells [1]; Time 0.25 hours, EGFR siRNA-1): 814 RFU
- RFU (A431 cells [1]; Time 0.25 hours, EGFR siRNA-2): 950 RFU
- RFU (A431 cells [1]; Time 0.5 hours, Control Luciferase siRNA): 1988 RFU
- RFU (A431 cells [1]; Time 0.5 hours, EGFR siRNA-1): 1562 RFU
- RFU (A431 cells [1]; Time 0.5 hours, EGFR siRNA-2): 1637 RFU
- RFU (A431 cells [1]; Time 1 hours, Control Luciferase siRNA): 2315 RFU
- RFU (A431 cells [1]; Time 1 hours, EGFR siRNA-1): 2308 RFU
- RFU (A431 cells [1]; Time 1 hours, EGFR siRNA-2): 2698 RFU
- RFU (A431 cells [1]; Time 2 hours, Control Luciferase siRNA): 2276 RFU
- RFU (A431 cells [1]; Time 2 hours, EGFR siRNA-1): 2280 RFU
- RFU (A431 cells [1]; Time 2 hours, EGFR siRNA-2): 2349 RFU
- RFU (A431 cells [1]; Time 4 hours, Control Luciferase siRNA): 3103 RFU
- RFU (A431 cells [1]; Time 4 hours, EGFR siRNA-1): 2854 RFU
- RFU (A431 cells [1]; Time 4 hours, EGFR siRNA-2): 3069 RFU
- RFU (A431 cells [1]; Time 6 hours, Control Luciferase siRNA): 4300 RFU
- RFU (A431 cells [1]; Time 6 hours, EGFR siRNA-1): 3747 RFU
- RFU (A431 cells [1]; Time 6 hours, EGFR siRNA-2): 3821 RFU
- RFU (A431 cells [1]; Time 8 hours, Control Luciferase siRNA): 4988 RFU
- RFU (A431 cells [1]; Time 8 hours, EGFR siRNA-1): 5048 RFU
- RFU (A431 cells [1]; Time 8 hours, EGFR siRNA-2): 5145 RFU
- total uptake, effect of growth factor treatment (A431 cells [1]; growth factor 4 hours, then compound 2 hours): not affected in a significant, dose dependent manner
- uptake, effect of EGFR expression level (A431 cells [1]; siRNA treated A431 cells): unaffected
- % ASO EE/Total ASO (A431 cells [2]; Control luciferase siRNA): 15%
- % ASO EE/Total ASO (A431 cells [2]; EGFR siRNA-1): 26%
- % ASO LE/Total ASO (A431 cells [2]; Control luciferase siRNA): 79%
- % ASO LE/Total ASO (A431 cells [2]; EGFR siRNA-1): 66%
- RFU (HEK cells; 0.25 μM, Overexpressing EGFR): 123 RFU
- RFU (HEK cells; 0.25 μM, Wild type HEK cells): 109 RFU
- RFU (HEK cells; 0.5 μM, Overexpressing EGFR): 163 RFU
- RFU (HEK cells; 0.5 μM, Wild type HEK cells): 143 RFU
- RFU (HEK cells; 1 μM, Overexpressing EGFR): 255 RFU
- RFU (HEK cells; 1 μM, Wild type HEK cells): 287 RFU
- uptake, effect of varying EGFR expression levels (HEK cells; HEK cells overexpressing EGFR vs wild type): did not affect
